Laboratory results taken from patent publication US9944602B2, “Piperidinone herbicides” (E. I. DU PONT DE NEMOURS AND COMPANY, priority 2014, dated 2018).

Key:
Assay type in all cases: in vivo
[1] = system: barnyardgrass (Echinochloa crus-galli); test: Test A preemergence barnyardgrass; details: 0 to 100 scale, 0 no effect, 100 complete control
Excerpt: (§1) Seeds of plant species selected from barnyardgrass (Echinochloa crus-galli), kochia (Kochia scoparia), ragweed (common ragweed, Ambrosia elatior), ryegrass, Italian (Italian ryegrass, Lolium multiflorum), crabgrass, large (large crabgrass, Digitaria sanguinalis), foxtail, giant (giant foxtail, Setaria faberii), morningglory (Ipomoea spp.), pigweed (Amaranthus retroflexus), velvetleaf (Abutilon theophrasti), wheat (Triticum aestivum), and corn (Zea mays) were planted into a blend of loam soil and sand and treated preemergence with a directed soil spray using test chemicals formulated in a non-phytotoxic solvent mixture which included a surfactant.
(§2) At the same time, plants selected from these crop and weed species and also blackgrass (Alopecurus myosuroides), and galium (catchweed bedstraw, Galium aparine) were planted in pots containing the same blend of loam soil and sand and treated with postemergence applications of test chemicals formulated in the same manner. Plants ranged in height from 2 to 10 cm and were in the one- to two-leaf stage for the postemergence treatment. Treated plants and untreated controls were maintained in a greenhouse for approximately 10 d, after which time all treated plants were compared to untreated controls and visually evaluated for injury. Plant response ratings, summarized in Table A, are based on a 0 to 100 scale where 0 is no effect and 100 is complete control. A dash (-) response means no test result.

kochia (Kochia scoparia) [2] = test: Test A preemergence kochia; details: 0 to 100 scale, 0 no effect, 100 complete control
Excerpt: as §1, §2

[3] = system: ragweed (common ragweed, Ambrosia elatior); test: Test A preemergence ragweed; details: 0 to 100 scale, 0 no effect, 100 complete control
Excerpt: as §1, §2

[4] = system: ryegrass, Italian (Italian ryegrass, Lolium multiflorum); test: Test A preemergence ryegrass, Italian; details: 0 to 100 scale, 0 no effect, 100 complete control
Excerpt: as §1, §2

[5] = system: foxtail, giant (giant foxtail, Setaria faberii); test: Test A preemergence foxtail, giant; details: 0 to 100 scale, 0 no effect, 100 complete control
Excerpt: as §1, §2

[6] = system: pigweed (Amaranthus retroflexus); test: Test A preemergence pigweed; details: 0 to 100 scale, 0 no effect, 100 complete control
Excerpt: as §1, §2

[7] = system: barnyardgrass (Echinochloa crus-galli); test: Test A postemergence barnyardgrass; details: 0 to 100 scale, 0 is no effect, 100 is complete control
Excerpt: as §1, §2

kochia (Kochia scoparia) [8] = test: Test A postemergence kochia; details: 0 to 100 scale, 0 is no effect, 100 is complete control
Excerpt: as §1, §2

[9] = system: ragweed (common ragweed, Ambrosia elatior); test: Test A postemergence ragweed; details: 0 to 100 scale, 0 is no effect, 100 is complete control
Excerpt: as §1, §2

[10] = system: ryegrass, Italian (Italian ryegrass, Lolium multiflorum); test: Test A postemergence ryegrass, Italian; details: 0 to 100 scale, 0 is no effect, 100 is complete control
Excerpt: as §1, §2

[11] = system: foxtail, giant (giant foxtail, Setaria faberii); test: Test A postemergence foxtail, giant; details: 0 to 100 scale, 0 is no effect, 100 is complete control
Excerpt: as §1, §2

[12] = system: pigweed (Amaranthus retroflexus); test: Test A postemergence pigweed; details: 0 to 100 scale, 0 is no effect, 100 is complete control
Excerpt: as §1, §2

[13] = system: wheat (Triticum aestivum); test: Test A postemergence wheat; details: 0 to 100 scale, 0 is no effect, 100 is complete control
Excerpt: as §1, §2

corn (Zea mays) = test: Test A postemergence corn; details: 0 to 100 scale, 0 is no effect, 100 is complete control
Excerpt: as §1, §2

[14] = system: blackgrass (Alopecurus myosuroides); test: Test A postemergence blackgrass; details: 0 to 100 scale, 0 is no effect, 100 is complete control
Excerpt: as §1, §2

[15] = system: galium (catchweed bedstraw, Galium aparine); test: Test A postemergence galium; details: 0 to 100 scale, 0 is no effect, 100 is complete control
Excerpt: as §1, §2

rice (Oryza sativa) = test: Test B flooded paddy test rice; details: Table B, Flood, scale 0 to 100
Experimental: (§3) Plant species in the flooded paddy test selected from rice (Oryza sativa), sedge, umbrella (small-flower umbrella sedge, Cyperus difformis), ducksalad (Heteranthera limosa), and barnyardgrass (Echinochloa crus-galli) were grown to the 2-leaf stage for testing. At the time of treatment, test pots were flooded to 3 cm above the soil surface, treated by application of test compounds directly to the paddy water, and then maintained at that water depth for the duration of the test. Treated plants and controls were maintained in a greenhouse for 13 to 15 d, after which time all species were compared to controls and visually evaluated. […] A dash (-) response means no test result.

[16] = system: sedge, umbrella (small-flower umbrella sedge, Cyperus difformis); test: Test B flooded paddy test sedge, umbrella; details: Table B, Flood, scale 0 to 100
Experimental: as §3

[17] = system: ducksalad (Heteranthera limosa); test: Test B flooded paddy test ducksalad; details: Table B, Flood, scale 0 to 100
Experimental: as §3

[18] = system: barnyardgrass (Echinochloa crus-galli); test: Test B flooded paddy test barnyardgrass; details: Table B, Flood, scale 0 to 100
Experimental: as §3

Row | SMILES | Barnyardgrass plant response rating ([1]; 125 g ai/ha) | Barnyardgrass plant response rating ([1]; 500 g ai/ha) | Kochia plant response rating (kochia (Kochia scoparia) [2]; 125 g ai/ha) | Kochia plant response rating (kochia (Kochia scoparia) [2]; 500 g ai/ha) | Ragweed plant response rating ([3]; 125 g ai/ha) | Ragweed plant response rating ([3]; 500 g ai/ha) | Ryegrass, Italian plant response rating ([4]; 125 g ai/ha) | Ryegrass, Italian plant response rating ([4]; 500 g ai/ha) | Foxtail, Giant plant response rating ([5]; 125 g ai/ha) | Foxtail, Giant plant response rating ([5]; 500 g ai/ha) | Pigweed plant response rating ([6]; 125 g ai/ha) | Pigweed plant response rating ([6]; 500 g ai/ha) | Plant response rating, Barnyardgrass ([7]; 125 g ai/ha) | Plant response rating, Barnyardgrass ([7]; 500 g ai/ha) | Plant response rating, Kochia (kochia (Kochia scoparia) [8]; 125 g ai/ha) | Plant response rating, Kochia (kochia (Kochia scoparia) [8]; 500 g ai/ha) | Plant response rating, Ragweed ([9]; 125 g ai/ha) | Plant response rating, Ragweed ([9]; 500 g ai/ha) | Plant response rating, Ryegrass, Italian ([10]; 125 g ai/ha) | Plant response rating, Ryegrass, Italian ([10]; 500 g ai/ha) | also measured
1 | O=C1NCCC(c2cccc(OC(F)F)c2)C1C(=O)Nc1ccc(F)c(F)c1F (racemic) [Compound 44] | 60 | 90 | 0 | 0 | 0 | 30 | 0 | 0 | 80 | 90 | 0 | 0 | 20 | 80 | 0 | 0 | 0 | 0 | 0 | 20 | Plant response rating, Foxtail, Giant ([11]; 125 g ai/ha): 30; Plant response rating, Foxtail, Giant ([11]; 500 g ai/ha): 80; Plant response rating, Pigweed ([12]; 125 g ai/ha): 0; Plant response rating, Pigweed ([12]; 500 g ai/ha): 0; Plant response rating, Wheat ([13]; 125 g ai/ha): 0; Plant response rating, Wheat ([13]; 500 g ai/ha): 0; Plant response rating, Corn (corn (Zea mays); 125 g ai/ha): 0; Plant response rating, Corn (corn (Zea mays); 500 g ai/ha): 0; Plant response rating, Blackgrass ([14]; 125 g ai/ha): 0; Plant response rating, Blackgrass ([14]; 500 g ai/ha): 20; Plant response rating, Galium ([15]; 125 g ai/ha): 0; Plant response rating, Galium ([15]; 500 g ai/ha): 20; Plant response rating (rice (Oryza sativa); 500 g ai/ha): 0; Plant response rating ([16]; 500 g ai/ha): 0; Plant response rating ([17]; 500 g ai/ha): 85; Plant response rating ([18]; 500 g ai/ha): 60
2 | O=C1NCC[C@@H](c2cccc(Cl)c2)[C@@H]1C(=O)Nc1cccc(F)c1F [Compound 43] | 0 | 0 | 0 | 0 | 0 | 0 | 0 | 0 | 0 | 0 | 0 | 0 | 0 | 0 | 0 | 0 | 0 | 0 | 0 | 0 | Plant response rating, Foxtail, Giant ([11]; 125 g ai/ha): 0; Plant response rating, Foxtail, Giant ([11]; 500 g ai/ha): 0; Plant response rating, Pigweed ([12]; 125 g ai/ha): 0; Plant response rating, Pigweed ([12]; 500 g ai/ha): 0; Plant response rating, Wheat ([13]; 125 g ai/ha): 0; Plant response rating, Wheat ([13]; 500 g ai/ha): 0; Plant response rating, Corn (corn (Zea mays); 125 g ai/ha): 0; Plant response rating, Corn (corn (Zea mays); 500 g ai/ha): 0; Plant response rating, Blackgrass ([14]; 125 g ai/ha): 0; Plant response rating, Blackgrass ([14]; 500 g ai/ha): 0; Plant response rating, Galium ([15]; 125 g ai/ha): 0; Plant response rating, Galium ([15]; 500 g ai/ha): 0; Plant response rating (rice (Oryza sativa); 250 g ai/ha): 0; Plant response rating ([16]; 250 g ai/ha): 0; Plant response rating ([17]; 250 g ai/ha): 0; Plant response rating ([18]; 250 g ai/ha): 0
